Measured values: US6462055B2, “Alpha-methylbenzyl-containing thiourea inhibitors of herpes viruses containing a phenylenediamine group” (Wyeth, priority 1998, dated 2002)
In brackets after ≈: the same amount, converted by molar mass.

Assays:
[1] = test system: HCMV recombinant mutant virus (RV145); experiment: microbe, parasite or virus in culture; assay type: cell-based, human cytomegalovirus; details: HCMV
From the text: Microtiter plate assay. Ninety-six well plate cultures of human foreskin fibroblasts are infected in the presence of inhibitor compound with a HCMV recombinant mutant virus whose genome contains the prokaryotic beta-glucuronidase gene (Jefferson, R. A., S. M. Burgess, and D. Hirsh. 1986. Beta-glucuronidase from Escherichia coli as a gene fusion marker. Proc. Natl. Acad. Sci. USA 83:8447-8451) whose expression is controlled by a viral promoter. An example of such a virus is RV145 (Jones, T. R., V. P. Muzithras, and Y. Gluzman. 1991. Replacement mutagenesis of the human cytomegalovirus genome: US10 and US11 gene products are nonessential. J. Virol. 65:5860-5872). Since it is under the control of a viral promoter, beta-glucuronidase expression is an indirect indicator of growth and replication of HCMV in this assay. At 96 hours post-infection, the infected cell lysates are prepared (using 50 mM sodium phosphate [pH7.0]containing 0.1% Triton X-100 and 0.1% sarkosyl) and assayed for beta-glucuronidase activity using a substrate for the enzyme which when cleaved yields either a product which can be measured […] in a spectrophotometer or fluorescently in a microfluorimeter. Examples of such substrates are p-nitrophenyl-beta-D-glucuronide and methylumbelliferylglucuronide, respectively. The presence of an antiviral compound is indicated by the reduced expression of the HCMV genome resident beta-glucuronidase gene, compared to the absence of inhibitor. […] Data from this assay generated using varying amounts of inhibitor compound is also used to estimate the IC50 of an inhibitor compound.

[2] = test system: HSV-1; experiment: HSV Antiviral (ELISA) Assay in Vero cells; assay type: cell-based, herpes simplex virus type 1; details: HSV-1, Vero cells
Outline: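 Viral replication was quantified by cell-fixed ELISA for HSV glycoprotein D, using a β-galactosidase reporter and fluorogenic umbelliferyl substrate, about 24 h after HSV-1 infection (MOI 0.006) of Vero cells. Compounds, at several concentrations, were added 30 min pre-infection. IC50 was derived from fluorescence relative to the compound-free signal.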

[3] = test system: VZV strain Ellen; experiment: VZV Antiviral (ELISA) Assay in human foreskin fibroblast cells; assay type: cell-based, varicella-zoster virus
Outline: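 Low-MOI (<0.1) Ellen infection of HFF overnight; cell mix plated 3.5×10^4/well with compound, DMEM + 2% FBS, 3 d, 37° C, 5% CO2. Fix, anti-gpII mAb ELISA, MUG substrate, fluorescence. IC50 vs compound-free signal.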

Row | Structure (SMILES) | IC50 ug/ml HCMV [1] [µg/mL] | IC50 (ug/ml) HSV [2] [µg/mL] | IC50 (ug/ml) VZV [3] [µg/mL] | % inhibition 10 ug/ml VZV [3] [%]
1 | COc1cc(OC)c(NC(=S)Nc2ccc(NC(=O)c3ccccc3NC(C)=O)cc2)cc1Cl [Example 189] | >10 | 2.5 (≈ 5.01 µM) | >10 | 59
2 | COc1cc(OC)c(NC(=S)Nc2ccc(NC(=O)c3ccccc3N[S+](C)[O-])cc2)cc1Cl (stereo not shown) [Example 191] | >10 | 8 (≈ 15.4 µM) | >10 | 22
3 | COc1cc(OC)c(NC(=S)Nc2ccc(NC(=O)c3ccc(F)c(F)c3F)cc2)cc1Cl [Example 192] | >10 | 0.5 (≈ 1.01 µM) | >10 | 14
4 | COc1cc(OC)c(NC(=S)Nc2ccc(NC(=O)c3c(F)c(F)c(F)c(F)c3F)cc2)cc1Cl [Example 193] | >10 | 1.5 (≈ 2.82 µM) | 3.8 (≈ 7.14 µM) | 106
5 | COc1cc(OC)c(NC(=S)Nc2ccc(NC(=O)c3ccccc3SC)cc2)cc1Cl [Example 194] | >10 | 1.5 (≈ 3.07 µM) | >10 | 45
6 | COc1cc(OC)c(NC(=S)Nc2ccc(NC(=O)c3cccc(C(=O)O)c3)cc2)cc1Cl [Example 209] | >50 | >50 | >10 | 22
7 | COc1cc(OC)c(NC(=S)Nc2ccc(NC(=O)c3cccc(OCc4ccccc4)c3)cc2)cc1Cl [Example 210] | >10 | 5 (≈ 9.12 µM) | >10 | 14
8 | CCCCOc1cccc(C(=O)Nc2ccc(NC(=S)Nc3cc(Cl)c(OC)cc3OC)cc2)c1 [Example 219] | >10 | 2.5 (≈ 4.86 µM) | >10 | 30
9 | COc1cc(OC)c(NC(=S)Nc2ccc(NC(=O)c3ccccc3[S+](C)[O-])cc2)cc1Cl (stereo not shown) [Example 220] | >10 | >10 | >10 | 35
10 | CCOC(=O)COc1cccc(C(=O)Nc2ccc(NC(=S)Nc3cc(Cl)c(OC)cc3OC)cc2)c1 [Example 221] | >10 | >10 | >10 | 17
11 | COc1cc(OC)c(NC(=S)Nc2ccc(NC(=O)c3cccc(OCC(=O)O)c3)cc2)cc1Cl [Example 222] | >50 | >50 | >10 | 17
12 | Cc1ccc(NC(=S)Nc2ccc(NC(=O)c3ccccc3F)cc2)cc1Cl [Example 231] | >10 | 0.5 (≈ 1.21 µM) | >10 | 11
13 | COc1cccc(C(=O)Nc2ccc(NC(=S)Nc3ccc(C)c(Cl)c3)cc2)c1 [Example 232] | >10 | 1 (≈ 2.35 µM) | >10 | 21
14 | Cc1ccc(NC(=S)Nc2ccc(NC(=O)c3ccccc3C)cc2)cc1Cl [Example 234] | 1 (≈ 2.44 µM) | 0.2 (≈ 0.488 µM) | >10 | 68
15 | Cc1ccc(NC(=S)Nc2ccc(NC(=O)c3c(F)cccc3F)cc2)cc1Cl [Example 235] | >10 | 0.2 (≈ 0.463 µM) | >10 | 50
16 | CN(c1ccc(NC(=S)Nc2ccc(NC(=O)c3ccccc3F)cc2)cc1Cl)C1CCCCC1 [Example 238] | >10 | >10 | >10 | 38
17 | O=C(Nc1ccc(NC(=S)Nc2ccc(Cl)c(C(F)(F)F)c2)cc1)c1ccccc1F [Example 244] | >10 | >10 | >10 | 18

Row | Structure (SMILES) | IC50 ug/ml HCMV [1] [µg/mL] | IC50 (ug/ml) HSV [2] [µg/mL] | IC50 (ug/ml) VZV [3] [µg/mL] | % inhibition 10 ug/ml VZV [3] [%]
18 | Cc1ccccc1C(=O)Nc1ccc(NC(=S)Nc2ccc(N(C)C3CCCCC3)c(Cl)c2)cc1 [Example 247] | >10 | >10 | 5 (≈ 9.86 µM) | 74
19 | CN(c1ccc(NC(=S)Nc2ccc(NC(=O)c3c(F)cccc3F)cc2)cc1Cl)C1CCCCC1 [Example 248] | 2 (≈ 3.78 µM) | >10 | 2 (≈ 3.78 µM) | 96
20 | COc1cccc(C(=O)Nc2ccc(NC(=S)Nc3ccc(N(C)C4CCCCC4)c(Cl)c3)cc2)c1 [Example 250] | >10 | >10 | >10 | 42
21 | COc1cc(OC)c(NC(=S)Nc2ccc(NC(=O)c3cccc(OC(C)=O)c3)cc2)cc1Cl [Example 253] | 8 (≈ 16 µM) | 1.2 (≈ 2.4 µM) | 6 (≈ 12 µM) | 100
22 | COc1cc(OC)c(NC(=S)Nc2ccc(NC(=O)c3cccc(O)c3)cc2)cc1Cl [Example 254] | 4 (≈ 8.73 µM) | 0.9 (≈ 1.97 µM) | 4 (≈ 8.73 µM) | 110
23 | COc1cc(OC)c(NC(=S)Nc2ccc(NC(=O)c3cccc4c3OCO4)cc2)cc1Cl [Example 255] | >10 | 1.2 (≈ 2.47 µM) | >10 | 0
24 | COc1cc(OC)c(NC(=S)Nc2ccc(NC(=O)c3cccc(OC(F)(F)F)c3)cc2)cc1Cl [Example 256] | 9 (≈ 17.1 µM) | 2 (≈ 3.8 µM) | >10 | 15
25 | COc1cc(OC)c(NC(=S)Nc2ccc(NC(=O)c3cccc(OCCN(C)C)c3)cc2)cc1Cl [Example 257] | 7 (≈ 13.2 µM) | 2.5 (≈ 4.73 µM) | 2.5 (≈ 4.73 µM) | 105
26 | COc1cc(OC)c(NC(=S)Nc2ccc(NC(=O)c3cccc(OCCN4CCOCC4)c3)cc2)cc1Cl [Example 258] | 5 (≈ 8.76 µM) | 1.5 (≈ 2.63 µM) | 1.5 (≈ 2.63 µM) | 92
27 | COc1cc(OC)c(NC(=S)Nc2ccc(NC(=O)c3ccccc3F)c(Cl)c2)cc1Cl [Example 278] | >10 | >10 | >10 | 15
28 | COc1cc(OC)c(NC(=S)Nc2ccc(NC(=O)c3ccccc3F)c(C(=O)c3ccccc3)c2)cc1Cl [Example 293] | >10 | >50 | >10 | 2
29 | CN1CCC(N(C)c2ccc(NC(=S)Nc3ccc(NC(=O)c4ccccc4F)cc3)cc2Cl)C1 (stereo not shown) [Example 332] | 0.9 (≈ 1.76 µM) | 1 (≈ 1.95 µM) | 8 (≈ 15.6 µM) | 90
30 | COc1cc(C)c(Cl)cc1NC(=S)Nc1ccc(NC(=O)c2c(F)cccc2F)cc1 [Example 333] | 2.5 (≈ 5.41 µM) | 0.04 (≈ 0.0866 µM) | 4.5 (≈ 9.74 µM) | 92
31 | CN1CCC(N(C)c2ccc(NC(=S)Nc3ccc(NC(=O)c4c(F)cccc4F)cc3)cc2Cl)CC1 [Example 340] | 0.25 (≈ 0.459 µM) | 3 (≈ 5.51 µM) | 4 (≈ 7.35 µM) | 99
32 | CSc1ccc(NC(=S)Nc2ccc(NC(=O)c3ccccc3C)cc2)cc1Cl [Example 342] | 1.4 (≈ 3.17 µM) | 0.2 (≈ 0.452 µM) | >10 | 62
33 | Cc1ccccc1C(=O)Nc1ccc(NC(=S)Nc2ccc(N(C)C)c(Cl)c2)cc1 [Example 346] | 2 (≈ 4.56 µM) | 6 (≈ 13.7 µM) | >10 | 62
34 | CN(C)c1ccc(NC(=S)Nc2ccc(NC(=O)c3c(F)cccc3F)cc2)cc1Cl [Example 348] | 0.8 (≈ 1.74 µM) | 4 (≈ 8.68 µM) | 8 (≈ 17.4 µM) | 95
